“And” between values parts separate entries of the source, which are not always exact repeats. Equal entries are not always repeated.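 Dose response: 5 concentrations. Exposure: 48 h. Format: 96-well plates. Endpoint: linear interpolation; highest concentration if not reached. The concentration for 50% growth inhibition is given as GI50. TGI: total growth inhibition.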
Columns and labels:
Experiment in all cases: NCI anticancer screen, dose series, 48 h
[1] = system: DMS 114 small cell lung
[2] = system: HCT-15 colon
[3] = system: M19-MEL melanoma
[4] = system: NCI-H23 lung
[5] = system: OVCAR-3 ovarian
[6] = system: OVCAR-5 ovarian
[7] = system: SF-268 CNS
[8] = system: SR leukemia
[9] = system: OVCAR-4 ovarian
[10] = system: DU-145 prostate
[11] = system: T-47D breast

`COc1cccc(-c2nccc3c(OCc4ccccc4)c(OC)c(OC)cc23)c1` was tested, and the TGI [1] was > 100 µM, the TGI [2] was > 100 µM and the TGI [3] was > 100 µM. For the same compound, the TGI [4] was > 100 µM, the TGI [5] was > 100 µM and the TGI [6] was > 100 µM. The TGI [7] was > 100 µM and the TGI [8] was > 100 µM.

`CCOC(=O)C(C)(C)Oc1ccc2c(-c3ccc(Cl)cc3)c(-c3ccc(Cl)cc3)c(=O)oc2c1` was tested, and the TGI [1] was > 100 µM, the TGI [2] was > 100 µM and the TGI [3] was > 100 µM. The TGI [4] was > 100 µM, the TGI [5] was > 100 µM and the TGI [9] was > 100 µM. The TGI [7] was > 100 µM and the TGI [8] was > 100 µM.

In the case of `CCCCn1c2ccccc2c2ccc3c(c21)C(=O)C=CC3=O`, the TGI [1] is reported as > 100 µM, the TGI [2] is reported as > 100 µM and the TGI [3] is reported as 1.04 µM. The TGI [4] was > 100 µM, the TGI [5] was > 100 µM and the TGI [9] was > 100 µM. For the same compound, the TGI [6] was > 100 µM, the TGI [7] was > 100 µM and the TGI [8] was > 100 µM.

In the case of `CCN(CC)CCOC(=O)Cc1cccc2c(=O)cc(-c3ccccc3)oc12`, the TGI [1] is reported as 137 µM, the TGI [10] is reported as 54.6 µM and the GI50 [2] is reported as 82.5 µM. For the same compound, the TGI [2] was 62.5 µM and > 216 µM, the TGI [3] was > 223 µM and the GI50 [4] was 58.7 µM. The TGI [4] was 62.5 µM and > 147 µM, the GI50 [5] was > 43.4 µM and the TGI [5] was 62.5 µM and > 76.3 µM. It also gave a GI50 [9] of 18.3 µM, a TGI [9] of 62.5 µM and a GI50 [6] of 137 µM. For the same compound, the TGI [6] was 62.5 µM and > 197 µM, the TGI [7] was 62.5 µM and > 165 µM and the TGI [8] was 37.9 µM. The TGI [11] was 50.2 µM.

`O=C(CSc1nnc(-c2ccc(N=Cc3ccc(Cl)cc3)cc2)o1)Nc1ccc([N+](=O)[O-])cc1` gave a TGI [1] of 32.9 µM, a TGI [2] of 32.6 µM and a TGI [3] of 36.9 µM. For the same compound, the TGI [4] was 38.1 µM, the TGI [9] was 84.9 µM and the TGI [7] was 46.1 µM. It also gave a TGI [8] of 48.7 µM.

With `COC12CCC(C(C(=O)c3ccccc3)=C1C(=O)c1ccccc1)C(O)C2` (centres undefined) the TGI [1] was > 100 µM, the TGI [2] was > 100 µM and the TGI [3] was > 100 µM. For the same compound, the TGI [4] was > 100 µM, the TGI [5] was > 100 µM and the TGI [9] was > 100 µM. For the same compound, the TGI [7] was > 100 µM and the TGI [8] was > 100 µM.

`Cc1c(-c2nnc(-c3ccccc3)o2)c(=O)n(-c2ccccc2)n1C` was tested, and the TGI [1] was > 100 µM, the TGI [2] was > 100 µM and the TGI [3] was > 100 µM. For the same compound, the TGI [4] was > 100 µM, the TGI [5] was > 100 µM and the TGI [9] was > 100 µM. For the same compound, the TGI [7] was > 100 µM and the TGI [8] was > 100 µM.

In the case of `O=C1C2=C(SCCS2)C(=O)c2c(Sc3ccc(Cl)cc3)c(Sc3ccc(Cl)cc3)c(Sc3ccc(Cl)cc3)c(Sc3ccc(Cl)cc3)c21`, the TGI [10] is reported as > 100 µM, the TGI [2] is reported as > 100 µM and the TGI [4] is reported as > 100 µM. For the same compound, the TGI [5] was > 100 µM, the TGI [9] was > 100 µM and the TGI [6] was > 100 µM. The TGI [7] was > 100 µM, the TGI [8] was 36.2 µM and the TGI [11] was > 100 µM.

With `COc1ccc2c(c1)CCN1CCCc3ccccc3C21` (centres undefined) the TGI [10] was > 100 µM, the TGI [2] was > 100 µM and the TGI [4] was > 100 µM. For the same compound, the TGI [5] was > 100 µM, the TGI [9] was > 100 µM and the TGI [6] was > 100 µM. For the same compound, the TGI [7] was > 100 µM, the TGI [8] was > 100 µM and the TGI [11] was > 100 µM.

`COc1ccc(C2SCC(=O)N2NC(=O)C(C)Oc2ccccc2C)cc1` (centres undefined) was tested, and the TGI [10] was > 100 µM, the TGI [2] was > 100 µM and the TGI [4] was > 100 µM. For the same compound, the TGI [5] was > 100 µM, the TGI [9] was > 100 µM and the TGI [6] was > 100 µM. For the same compound, the TGI [7] was > 100 µM, the TGI [8] was > 100 µM and the TGI [11] was > 100 µM.

With `O=C(O)CNC(=O)c1ccc2cc(C(=O)N3CC(CCl)c4ccc([N+](=O)[O-])cc43)[nH]c2c1` (centres undefined) the TGI [10] was > 100 µM, the TGI [2] was > 100 µM and the TGI [4] was > 100 µM. For the same compound, the TGI [5] was > 100 µM, the TGI [9] was > 100 µM and the TGI [6] was > 100 µM. For the same compound, the TGI [7] was > 100 µM, the TGI [8] was > 100 µM and the TGI [11] was > 100 µM.

`COC1=C2C=[N+](C)C3C(=C2C=CC1OC)Cc1cc2c(cc13)OCO2` (centres undefined) was tested, and the TGI [10] was 27.5 µM, the TGI [2] was 35.3 µM and the TGI [4] was 30.6 µM. It also gave a TGI [5] of 13.7 µM, a TGI [9] of 22.3 µM and a TGI [6] of 32.1 µM. It also gave a TGI [7] of 20.3 µM, a TGI [8] of 42 µM and a TGI [11] of 18.8 µM.

In the case of `COC(=O)NC(Cc1ccccc1)NC(C)=O` (centres undefined), the TGI [10] is reported as > 100 µM, the TGI [2] is reported as > 100 µM and the TGI [4] is reported as > 100 µM. For the same compound, the TGI [5] was > 100 µM, the TGI [9] was > 100 µM and the TGI [6] was > 100 µM. The TGI [7] was > 100 µM, the TGI [8] was > 100 µM and the TGI [11] was > 100 µM.

In the case of `Cn1ccnc1CCc1ccc(Cl)c(Cl)c1`, the TGI [1] is reported as > 100 µM, the TGI [2] is reported as > 100 µM and the TGI [3] is reported as > 100 µM. For the same compound, the TGI [4] was > 100 µM, the TGI [5] was > 100 µM and the TGI [9] was > 100 µM. The TGI [6] was > 100 µM, the TGI [7] was > 100 µM and the TGI [8] was > 100 µM.

In the case of `CN(Cc1cnc2nc(N)nc(N)c2n1)c1ccc(C(=O)NC(CCC(=O)NC(CC(P(=O)(O)O)P(=O)(O)O)C(=O)O)C(=O)O)cc1` (centres undefined), the TGI [10] is reported as > 100 µM, the TGI [2] is reported as > 100 µM and the TGI [4] is reported as > 100 µM. The TGI [5] was > 100 µM, the TGI [9] was > 100 µM and the TGI [6] was > 100 µM. For the same compound, the TGI [7] was > 100 µM, the TGI [8] was > 100 µM and the TGI [11] was > 100 µM.

For `O=C1CS[C@@](CC(c2ccc(Cl)cc2)c2ccc(Cl)cc2)(c2ccc(Cl)cc2)N1`, the TGI [10] was > 100 µM, the TGI [2] was > 100 µM and the TGI [4] was > 100 µM. For the same compound, the TGI [5] was 38 µM, the TGI [9] was > 100 µM and the TGI [6] was > 100 µM. For the same compound, the TGI [7] was > 100 µM, the TGI [8] was 26.3 µM and the TGI [11] was > 100 µM.

For `CC12ON(P(=O)(c3ccccc3)c3ccccc3)C(C)(c3ccccc31)c1ccccc12`, the TGI [10] was > 100 µM, the TGI [2] was > 100 µM and the TGI [4] was > 100 µM. The TGI [5] was > 100 µM, the TGI [9] was > 100 µM and the TGI [6] was > 100 µM. For the same compound, the TGI [7] was > 100 µM, the TGI [8] was > 100 µM and the TGI [11] was > 100 µM.
